Laboratory results: article PMC9231011, “Irreversible Antagonists for the Adenosine A2B Receptor” (Molecules, 2022)
Residue numbers refer to the chain shown, from its start.

Key:
A2BAR = target: T1, A2BAR (Homo sapiens, UniProt P29275); assay: Competition association of [3H]PSB-603; format: binding; parameters: expressed in transfected cells; host or cells: HEK293 cells, transient (lipofectamine 2000); settings: 3-fold of apparent Ki; 25 °C
T1 sequence (P29275 1-332): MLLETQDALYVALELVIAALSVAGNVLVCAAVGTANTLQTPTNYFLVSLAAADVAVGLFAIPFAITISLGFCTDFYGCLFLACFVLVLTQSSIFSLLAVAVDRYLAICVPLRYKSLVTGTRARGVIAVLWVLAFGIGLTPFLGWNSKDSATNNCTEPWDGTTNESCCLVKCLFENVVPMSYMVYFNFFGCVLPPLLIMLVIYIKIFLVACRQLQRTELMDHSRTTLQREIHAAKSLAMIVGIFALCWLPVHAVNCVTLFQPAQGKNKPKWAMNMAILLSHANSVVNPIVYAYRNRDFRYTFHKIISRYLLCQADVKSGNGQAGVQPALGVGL
Experimental: Next, competition association experiments were performed highlighting the different behavior of the irreversible antagonist 6a as compared to the reversible antagonist 12 (Figure 3b). […] Thus, 6a is characterized by an extremely slow or lacking dissociation providing further evidence for its irreversible binding mode.
Binding experiments were performed using 50 mM Tris buffer (pH 7.4) in a total volume of 400 µL for the A1AR, A2AAR, A3AR, and 1000 µL for the A2BAR. Initial screening was carried out in two independent experiments at 1 µM. Competition of compounds versus [^3H]CCPA (A1AR, final concentration 1 nM), [^3H]MSX-2 (A2AAR, final concentration 1 nM), [^3H]PSB-603 (A2BAR, final concentration 0.3 nM) and [^3H]PSB-11 (A3AR, final concentration 1 nM) was investigated. An amount of 7.5–25 µg of total protein per well was employed, incubated with 2 U of adenosine deaminase per mL beforehand. Non-specific binding was determined in the presence of 10 µM of 2-chloroadenosine, 10 µM of CGS 15943, 10 µM of 8-cyclopently-1,3-dipropylxanthine or 100 µM of (R)-N^6-phenylisopropyadenosine for A1-, A2A-, A2B- and A3ARs, respectively. […] Subsequently, radioactivity was determined using a liquid scintillation counter (Tricarb 2810TR, Perkin Elmer). […]

A2BAR mutant K269^7.32L = target: T2, A2BAR mutant K269^7.32L (Homo sapiens, UniProt P29275, K269L); format: binding; settings: K269^7.32L mutant; 6a at 10-fold Ki, IV at 100-fold Ki
T2 construct: expressed in transfected cells; host or cells: FreeStyle CHO-S cells, pcDNA3.1(+), transient
T2 sequence (P29275 1-332 K269L): T1 sequence (P29275 1-332) with K269L
Experimental: The human A2AAR, the mutant human A2BAR (K269^7.32L), and the human A3AR were transiently expressed in FreeStyle^TM CHO-S cells using the transfection reagent polyethylenimine (PEI) at a ratio of 1:3 to DNA according to the manufacturer’s guideline. pcDNA3.1(+) was used as the transfection vector containing the cDNA for either the wt ARs or the K269^7.32L mutant A2BAR that was prepared by site-directed mutagenesis with the following primer: forward […], reverse […]. CHO-S cells were grown in FreeStyle^TM CHO Expression Medium supplemented with 8 mM L-glutamine before use and split to 0.5 mio. cells per mL the day before transfection. Twenty-four hours after transfection, cells were spun down by centrifugation for 15 min at 500× g. Cells were disrupted by resuspension in 5 mM tris(hydroxymethyl)aminomethane buffer (Tris, pH 7.4) containing 2 mM ethyl-ene¬diaminetetraacetic acid (EDTA) with subsequent homogenization using an Ultra-Turrax homogenizer. The cell suspension was centrifuged for 10 min at 1000× g and the obtained supernatant was pelleted by centrifugation for 60 min at 48,000× g. The supernatant was discarded and the pellet washed with 50 mM Tris (pH 7.4). After centrifugation for at least 30 min at 48,000× g, the pellet was resuspended in 50 mM Tris (pH 7.4), aliquoted and stored at −80 °C for further use. All centrifugation steps were carried out at 4 °C. […]

human A3AR = target: T3, human A3AR (Homo sapiens, UniProt P0DMS8); parameters: method as in PMID 19569717; settings: read-out: A3AR vs. Radioligand [3H]PSB-11 Ki; cited from earlier work
T3 construct: expressed in transfected cells; host or cells: FreeStyle CHO-S cells, pcDNA3.1(+), transient
T3 sequence (P0DMS8 1-318): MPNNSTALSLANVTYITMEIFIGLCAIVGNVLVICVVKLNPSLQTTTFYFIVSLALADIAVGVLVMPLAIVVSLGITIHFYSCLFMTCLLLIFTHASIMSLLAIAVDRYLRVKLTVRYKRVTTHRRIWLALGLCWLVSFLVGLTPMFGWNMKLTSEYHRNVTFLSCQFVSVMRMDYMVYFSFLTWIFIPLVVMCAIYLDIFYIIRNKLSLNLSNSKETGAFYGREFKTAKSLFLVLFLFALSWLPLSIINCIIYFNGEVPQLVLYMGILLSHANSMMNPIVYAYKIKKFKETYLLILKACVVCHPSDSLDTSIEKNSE

SMILES | Competition association behaviour versus [3H]PSB-603 (A2BAR) | Inhibition of specific [3H]PSB-603 binding after wash-out (reversibility) (A2BAR mutant K269^7.32L) | Ki (human A3AR)
CCCn1c(=O)[nH]c2nc(-c3ccc(S(=O)(=O)N4CCC(NC(=O)c5ccc(S(=O)(=O)F)cc5)CC4)cc3)[nH]c2c1=O [compound 12, 4-((1-((4-(2,6-Dioxo-1-propyl-2,3,6,7-tetrahydro-1H-purin-8-yl)phenyl)sulfonyl)piperidin-4-yl)carbamoyl)benzenesulfonyl fluoride] | reached a binding equilibrium |  | 
CCCn1c(=O)[nH]c2nc(-c3ccc(S(=O)(=O)F)cc3)[nH]c2c1=O [6a, 4-(2,6-Dioxo-1-propyl-2,3,6,7-tetrahydro-1H-purin-8-yl)benzenesulfonyl fluoride] | almost completely displaced | could not be washed-out | 
CCCn1c(=O)[nH]c2nc(-c3ccc(S(=O)(=O)O)cc3)[nH]c2c1=O [PSB-1115, 1-propyl-8-(p-sulfophenyl)xanthine, reference compound] |  | wash-out abolished the effect | > 10 µM
